This is an account of results in ChEMBL document CHEMBL1955732, “Synthesis and biological evaluation of 21-arylidenepregnenolone derivatives as neuroprotective agents” (Bioorg Med Chem Lett, 2012).

Calls of active or inactive are those of the source. The rule behind the calls is not given here.

System in the first series: not listed separately
As to the kind of experiment: Solubility of the compound at 10 uM. It counts as physicochemical.
Conditions: not given
Consider `C[C@]12CC[C@H]3[C@@H](CC=C4C[C@@H](O)CC[C@@]43C)[C@@H]1CC[C@@H]2C(=O)/C=C/c1ccc(Br)cc1`, for which the solubility entry is on record as “Insoluble”.
Consider `C[C@]12CC[C@H]3[C@@H](CC=C4C[C@@H](O)CC[C@@]43C)[C@@H]1CC[C@@H]2C(=O)/C=C/c1ccc(C#N)cc1`, for which the solubility result is reported as “Insoluble”.
On the same count and under the same terms, the result for `C[C@]12CC[C@H]3[C@@H](CC=C4C[C@@H](O)CC[C@@]43C)[C@@H]1CC[C@@H]2C(=O)/C=C/c1ccc(Cl)cc1` reads “Insoluble”.

A further series concerns PC-12. In words: Neuroprotective activity against Abeta25-35-induced […] cells assessed as cell viability at 10 uM preincubated for 2 hrs prior Abeta25-35 challenge measured after 24 hrs by MTT assay. The series is classed as functional. The following applies: Rattus norvegicus, read-out: Activity.
Consider `C[C@]12CC[C@H]3[C@@H](C[C@@H]4O[C@@]45C[C@@H](O)CC[C@]35C)[C@@H]1CC[C@@H]2C(=O)/C=C/c1ccc(Br)cc1`, for which the viability at 10 µM was determined as 32.5%.
The same measure, in the same setting: to `CC(C)c1ccc(/C=C/C(=O)[C@H]2CC[C@H]3[C@@H]4C[C@@H]5O[C@@]56C[C@@H](O)CC[C@]6(C)[C@H]4CC[C@]23C)cc1` belongs 49.8%; to `C[C@]12CC[C@H]3[C@@H](CC=C4C[C@@H](O)CC[C@@]43C)[C@@H]1CC[C@@H]2C(=O)/C=C/c1ccc(Cl)cc1Cl`, 34.5%.
The same measure, in the same setting: the result for `C[C@]12CC[C@H]3[C@@H](CC=C4C[C@@H](O)CC[C@@]43C)[C@@H]1CC[C@@H]2C(=O)/C=C/c1ccccc1` reads 29%.
On the same count and under the same terms, to `C[C@]12CC[C@H]3[C@@H](CC=C4C[C@@H](O)CC[C@@]43C)[C@@H]1CC[C@@H]2C(=O)/C=C/c1cccc([N+](=O)[O-])c1` belongs 37.8%; to `C[C@]12CC[C@H]3[C@@H](C[C@@H]4O[C@@]45C[C@@H](O)CC[C@]35C)[C@@H]1CC[C@@H]2C(=O)/C=C/c1ccc(Cl)cc1Cl`, 6%; to `Cc1ccccc1/C=C/C(=O)[C@H]1CC[C@H]2[C@@H]3C[C@@H]4O[C@@]45C[C@@H](O)CC[C@]5(C)[C@H]3CC[C@]12C`, 49.9%.
In the case of `C[C@]12CC[C@H]3[C@@H](C[C@@H]4O[C@@]45C[C@@H](O)CC[C@]35C)[C@@H]1CC[C@@H]2C(=O)/C=C/c1ccccc1F`, the viability at 10 µM was found to be 36.7%.
On the same count and under the same terms, the result for `CCOc1ccc(/C=C/C(=O)[C@H]2CC[C@H]3[C@@H]4CC=C5C[C@@H](O)CC[C@]5(C)[C@H]4CC[C@]23C)cc1OC` reads 26.7%.

System in another series: not listed separately
In words: Solubility of the compound at 1 uM. The series is classed as physicochemical.
Conditions: not given
Turning to `C[C@]12CC[C@H]3[C@@H](CC=C4C[C@@H](O)CC[C@@]43C)[C@@H]1CC[C@@H]2C(=O)/C=C/c1ccc(Br)cc1`, the solubility result is “Insoluble”.
The same measure, in the same setting: the result for `C[C@]12CC[C@H]3[C@@H](CC=C4C[C@@H](O)CC[C@@]43C)[C@@H]1CC[C@@H]2C(=O)/C=C/c1ccc(C#N)cc1` reads “Insoluble”; that for `C[C@]12CC[C@H]3[C@@H](CC=C4C[C@@H](O)CC[C@@]43C)[C@@H]1CC[C@@H]2C(=O)/C=C/c1ccc(Cl)cc1`, “Insoluble”.

The next series deals with PC-12. As to the kind of experiment: Neuroprotective activity against Abeta25-35-induced […] cells assessed as cell viability at 1 uM preincubated for 2 hrs prior Abeta25-35 challenge measured after 24 hrs by MTT assay. It counts as functional. The following applies: Rattus norvegicus.
With `CC(C)c1ccc(/C=C/C(=O)[C@H]2CC[C@H]3[C@@H]4C[C@@H]5O[C@@]56C[C@@H](O)CC[C@]6(C)[C@H]4CC[C@]23C)cc1`, the outcome was inactive.
The same measure, in the same setting: to `C[C@]12CC[C@H]3[C@@H](CC=C4C[C@@H](O)CC[C@@]43C)[C@@H]1CC[C@@H]2C(=O)/C=C/c1ccc(Cl)cc1Cl` belongs “inactive”.
The same measure, in the same setting: to `C[C@]12CC[C@H]3[C@@H](CC=C4C[C@@H](O)CC[C@@]43C)[C@@H]1CC[C@@H]2C(=O)/C=C/c1ccccc1` belongs “inactive”; to `C[C@]12CC[C@H]3[C@@H](C[C@@H]4O[C@@]45C[C@@H](O)CC[C@]35C)[C@@H]1CC[C@@H]2C(=O)/C=C/c1ccc(Cl)cc1Cl`, “inactive”.
On the same count and under the same terms, to `Cc1ccccc1/C=C/C(=O)[C@H]1CC[C@H]2[C@@H]3C[C@@H]4O[C@@]45C[C@@H](O)CC[C@]5(C)[C@H]3CC[C@]12C` belongs “inactive”; to `C[C@]12CC[C@H]3[C@@H](C[C@@H]4O[C@@]45C[C@@H](O)CC[C@]35C)[C@@H]1CC[C@@H]2C(=O)/C=C/c1ccccc1F`, “inactive”; to `CCOc1ccc(/C=C/C(=O)[C@H]2CC[C@H]3[C@@H]4CC=C5C[C@@H](O)CC[C@]5(C)[C@H]4CC[C@]23C)cc1OC`, “inactive”.

The series is the same for the next values; noted with them: Rattus norvegicus, read-out: Activity.
Regarding `C[C@]12CC[C@H]3[C@@H](C[C@@H]4O[C@@]45C[C@@H](O)CC[C@]35C)[C@@H]1CC[C@@H]2C(=O)/C=C/c1ccc(Br)cc1`, the viability at 1 µM came to 50.1%.
The same measure, in the same setting: the result for `C[C@]12CC[C@H]3[C@@H](CC=C4C[C@@H](O)CC[C@@]43C)[C@@H]1CC[C@@H]2C(=O)/C=C/c1cccc([N+](=O)[O-])c1` reads 51.2%.

Another series relates to PC-12. As to the kind of experiment: Cytotoxicity against […] cells at 10 uM after 24 hrs by MTT assay. It counts as cell-based. The following applies: rat, pc-12, 24 h.
As to `C[C@]12CC[C@H]3[C@@H](C[C@@H]4O[C@@]45C[C@@H](O)CC[C@]35C)[C@@H]1CC[C@@H]2C(=O)/C=C/c1ccc(Br)cc1`, the Activity entry was “Toxic”.
On the same count and under the same terms, the result for `CC(C)c1ccc(/C=C/C(=O)[C@H]2CC[C@H]3[C@@H]4C[C@@H]5O[C@@]56C[C@@H](O)CC[C@]6(C)[C@H]4CC[C@]23C)cc1` reads “Toxic”.
On the same count and under the same terms, to `C[C@]12CC[C@H]3[C@@H](CC=C4C[C@@H](O)CC[C@@]43C)[C@@H]1CC[C@@H]2C(=O)/C=C/c1ccc(Cl)cc1Cl` belongs “Toxic”.
The same measure, in the same setting: the result for `C[C@]12CC[C@H]3[C@@H](CC=C4C[C@@H](O)CC[C@@]43C)[C@@H]1CC[C@@H]2C(=O)/C=C/c1ccccc1` reads “Toxic”; that for `C[C@]12CC[C@H]3[C@@H](CC=C4C[C@@H](O)CC[C@@]43C)[C@@H]1CC[C@@H]2C(=O)/C=C/c1cccc([N+](=O)[O-])c1`, “Toxic”; that for `C[C@]12CC[C@H]3[C@@H](C[C@@H]4O[C@@]45C[C@@H](O)CC[C@]35C)[C@@H]1CC[C@@H]2C(=O)/C=C/c1ccc(Cl)cc1Cl`, “Toxic”.
For `Cc1ccccc1/C=C/C(=O)[C@H]1CC[C@H]2[C@@H]3C[C@@H]4O[C@@]45C[C@@H](O)CC[C@]5(C)[C@H]3CC[C@]12C`, the Activity result was “Toxic”.
Regarding `C[C@]12CC[C@H]3[C@@H](C[C@@H]4O[C@@]45C[C@@H](O)CC[C@]35C)[C@@H]1CC[C@@H]2C(=O)/C=C/c1ccccc1F`, the Activity entry is “Toxic”.
For `CCOc1ccc(/C=C/C(=O)[C@H]2CC[C@H]3[C@@H]4CC=C5C[C@@H](O)CC[C@]5(C)[C@H]4CC[C@]23C)cc1OC`, the Activity result is reported as “Toxic”.

The next series concerns PC-12. In words: Cytotoxicity against […] cells at 1 uM after 24 hrs by MTT assay. The following applies: rat, pc-12, 24 h. It counts as cell-based.
`C[C@]12CC[C@H]3[C@@H](C[C@@H]4O[C@@]45C[C@@H](O)CC[C@]35C)[C@@H]1CC[C@@H]2C(=O)/C=C/c1ccc(Br)cc1`: the Activity entry was “Toxic”.
Same read-out and setting: the result for `C[C@]12CC[C@H]3[C@@H](CC=C4C[C@@H](O)CC[C@@]43C)[C@@H]1CC[C@@H]2C(=O)/C=C/c1cccc([N+](=O)[O-])c1` reads “Toxic”.
